Laboratory results from patent US12668594B2, “TYK2 inhibitors and uses thereof” (Sudo Biosciences Limited, priority 2020, dated 2026).

How the values were obtained:
[1] = biological target: T1, TYK2 (Homo sapiens, UniProt P29597); experiment: HEK-Blue IL-23 reporter assay (SEAP) for TYK2 pseudokinase inhibition; format: cell-based; design: HEK-Blue™ IL-23 and IFNα/β cells with a stably-integrated cytokine receptor and STAT3 or STAT1; host or cells: HEK-Blue IL-23 / HEK-Blue IFNα/β cells (HEK293 background); settings: HEK-Blue IL-23 cells, 10 ng/mL human recombinant IL-23, SEAP reporter; read-out: IL23 IC50
Experimental: (§1) HEK-Blue™ IL-23 and IFNα/β cells with a stably-integrated cytokine receptor and STAT3 or STAT1 express STAT-inducible secreted embryonic alkaline phosphatase (SEAP) reporter gene upon cytokine stimulation. These cells are plated in DMVEM (Gibco) containing 10% heat-inactivated FBS (Gibco) and 100 U/mL PenStrep (Gibco) at 37° C. under […] conditions for 20-22 hours. The cells are then pretreated with serially diluted test compounds for 60 min prior to stimulation with either 10 ng/mL human recombinant IL-23 (Miltenyl Biotech) or 1 ng/mL human recombinant IFNα (InvivoGen) for 22-24 hours for IL-23 or 16-18 h for IFNα. SEAP induction is measured using the QUANTI Blue™ Solution (InvivoGen) according to the manufacturer's instructions. Inhibition data are calculated by comparison to no inhibitor control wells for 000 inhibition and non-stimulated control wells for 10000 inhibition. Dose response curves are generated to determine the concentration required to inhibit 5000 of cellular response (IC50) as derived by non-linear regression analysis.

[2] = biological target: T1, TYK2; experiment: HEK-Blue IFNα/β reporter assay (SEAP) for TYK2 pseudokinase inhibition; format: cell-based; settings: HEK-Blue IFNα/β cells, 1 ng/mL human recombinant IFNα
Experimental: as §1

T1 sequence (P29597 whole entry): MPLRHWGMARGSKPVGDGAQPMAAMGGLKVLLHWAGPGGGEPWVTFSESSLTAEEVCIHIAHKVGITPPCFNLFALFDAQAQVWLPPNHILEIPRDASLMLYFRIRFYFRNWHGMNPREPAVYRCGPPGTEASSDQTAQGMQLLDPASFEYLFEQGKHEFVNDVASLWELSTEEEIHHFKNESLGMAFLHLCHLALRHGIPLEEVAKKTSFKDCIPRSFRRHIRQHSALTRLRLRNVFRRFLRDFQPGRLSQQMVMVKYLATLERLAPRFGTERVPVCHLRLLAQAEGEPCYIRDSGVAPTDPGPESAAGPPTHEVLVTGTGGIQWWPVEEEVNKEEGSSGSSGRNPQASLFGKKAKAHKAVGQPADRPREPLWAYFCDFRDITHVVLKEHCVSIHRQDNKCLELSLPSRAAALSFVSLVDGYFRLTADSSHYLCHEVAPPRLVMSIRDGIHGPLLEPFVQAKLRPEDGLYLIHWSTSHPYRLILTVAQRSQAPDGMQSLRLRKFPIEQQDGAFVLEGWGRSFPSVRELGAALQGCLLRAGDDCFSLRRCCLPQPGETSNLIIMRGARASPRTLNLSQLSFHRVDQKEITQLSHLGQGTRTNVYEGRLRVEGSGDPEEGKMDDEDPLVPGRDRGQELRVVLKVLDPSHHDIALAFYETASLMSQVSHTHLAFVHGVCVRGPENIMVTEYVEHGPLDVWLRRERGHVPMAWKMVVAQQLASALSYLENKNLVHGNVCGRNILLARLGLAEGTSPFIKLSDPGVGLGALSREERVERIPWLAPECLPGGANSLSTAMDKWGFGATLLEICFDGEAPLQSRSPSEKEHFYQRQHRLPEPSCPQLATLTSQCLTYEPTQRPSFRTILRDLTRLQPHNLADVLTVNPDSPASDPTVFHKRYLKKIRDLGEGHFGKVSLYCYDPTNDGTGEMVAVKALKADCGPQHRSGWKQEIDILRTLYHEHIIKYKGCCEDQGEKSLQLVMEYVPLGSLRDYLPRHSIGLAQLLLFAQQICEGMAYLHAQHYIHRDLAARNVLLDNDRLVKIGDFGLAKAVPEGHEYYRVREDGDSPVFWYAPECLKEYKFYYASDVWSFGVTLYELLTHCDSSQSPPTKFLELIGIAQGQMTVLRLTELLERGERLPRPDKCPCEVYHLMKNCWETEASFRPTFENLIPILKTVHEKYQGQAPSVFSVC

Row | SMILES | IC50 [1] [µM] | IC50 [2] [µM]
1 | Cc1cc(Nc2cc3c(cn2)c(=O)[nH]n3-c2cccnc2)nc(C)n1 [Compound I-30, 6-((2,6-dimethylpyrimidin-4-yl)amino)-1-(pyridin-3-yl)-1,2-dihydro-3H-pyrazolo[4,3-c]pyridin-3-one] | < 10 | 10 to 30
2 | Cc1cc(Nc2cc3c(cn2)c(=O)[nH]n3-c2cccc(Cl)c2)nc(C)n1 [Compound I-31, 1-(3-chlorophenyl)-6-((2,6-dimethylpyrimidin-4-yl)amino)-1,2-dihydro-3H-pyrazolo[4,3-c]pyridin-3-one] | < 10 | < 10
3 | Cc1cc(Nc2cc3c(cn2)c(=O)[nH]n3-c2ccc(S(C)(=O)=O)cc2)nc(C)n1 [Compound I-32, 6-((2,6-dimethylpyrimidin-4-yl)amino)-1-(4-(methylsulfonyl)phenyl)-1,2-dihydro-3H-pyrazolo[4,3-c]pyridin-3-one] | 10 to 30 | > 90
4 | COc1cccc(-n2[nH]c(=O)c3cnc(Nc4cc(C)nc(C)n4)cc32)n1 [Compound I-33, 6-((2,6-dimethylpyrimidin-4-yl)amino)-1-(6-methoxypyridin-2-yl)-1,2-dihydro-3H1-pyrazolo[4,3-c]pyridin-3-one] | < 10 | < 10
5 | CC(C)(C)OC(=O)Nc1cc2c(cn1)c(=O)[nH]n2-c1ccccc1 [Compound I-35, tert-butyl N-{3-oxo-1-phenyl-1H,2H,3H-pyrazolo[4,3-c]pyridin-6-yl}carbamate] | > 90 | > 90
6 | COc1cccc(-n2[nH]c(=O)c3cnc(Nc4ccc(F)cn4)cc32)n1 [Compound I-36, 6-((5-fluoropyridin-2-yl)amino)-1-(6-methoxypyridin-2-yl)-1,2-dihydro-3H-pyrazolo[4,3-c]pyridin-3-one] | < 10 | < 10
7 | COc1cccc(-n2[nH]c(=O)c3cnc(Nc4ccc(F)cn4)cc32)c1F [Compound I-38, 1-(2-fluoro-3-methoxyphenyl)-6-((5-fluoropyridin-2-yl)amino)-1,2-dihydro-3H-pyrazolo[4,3-c]pyridin-3-one] | < 10 | 10 to 30
8 | COc1cccc(-n2[nH]c(=O)c3cnc(Nc4ccc(F)cn4)cc32)c1 [Compound I-39, 6-((5-fluoropyridin-2-yl)amino)-1-(3-methoxyphenyl)-1,2-dihydro-3H-pyrazolo[4,3-c]pyridin-3-one] | < 10 | < 10
9 | COc1cccc(-n2[nH]c(=O)c3cnc(Nc4ccc(C#N)cn4)cc32)c1 [Compound I-40, 6-((1-(3-methoxyphenyl)-3-oxo-2,3-dihydro-1H-pyrazolo[4,3-c]pyridin-6-yl)amino)nicotinonitrile] | < 10 | < 10
10 | COc1ccc(Nc2cc3c(cn2)c(=O)[nH]n3-c2cccc(OC)c2)nc1 [Compound I-41, 1-(3-methoxyphenyl)-6-((5-methoxypyridin-2-yl)amino)-1,2-dihydro-3H-pyrazolo[4,3-c]pyridin-3-one] | < 10 | < 10
11 | COc1cccc(-n2[nH]c(=O)c3cnc(Nc4ccc(C(F)(F)F)cn4)cc32)c1 [Compound I-42, 1-(3-methoxyphenyl)-6-((5-(trifluoromethyl)pyridin-2-yl)amino)-1,2-dihydro-3H-pyrazolo[4,3-c]pyridin-3-one] | < 10 | < 10
12 | COc1cccc(-n2[nH]c(=O)c3cnc(Nc4cc(C#N)ccn4)cc32)c1 [Compound I-44, 2-((1-(3-methoxyphenyl)-3-oxo-2,3-dihydro-1H-pyrazolo[4,3-c]pyridin-6-yl)amino)isonicotinonitrile] | < 10 | < 10
13 | COc1cccc(-n2[nH]c(=O)c3cnc(Nc4cc(OC)ccn4)cc32)c1 [Compound I-45, 1-(3-methoxyphenyl)-6-((4-methoxypyridin-2-yl)amino)-1,2-dihydro-3H-pyrazolo[4,3-c]pyridin-3-one] | 10 to 30 | > 90
14 | COc1cccc(-n2[nH]c(=O)c3cnc(Nc4cc(OC)ncn4)cc32)c1 [Compound I-46, 1-(3-methoxyphenyl)-6-((6-methoxypyrimidin-4-yl)amino)-1,2-dihydro-3H-pyrazolo[4,3-c]pyridin-3-one] | < 10 | > 90
15 | COc1cccc(-n2[nH]c(=O)c3cnc(Nc4cc(C)ncn4)cc32)c1 [Compound I-47, 1-(3-methoxyphenyl)-6-((6-methylpyrimidin-4-yl)amino)-1,2-dihydro-3H-pyrazolo[4,3-c]pyridin-3-one] | > 90 | < 10
16 | COc1cccc(-n2[nH]c(=O)c3cnc(Nc4ccnc(OC)n4)cc32)c1 [Compound I-48, 1-(3-methoxyphenyl)-6-((2-methoxypyrimidin-4-yl)amino)-1,2-dihydro-3H-pyrazolo[4,3-c]pyridin-3-one] | > 90 | > 90
17 | COc1cccc(-n2[nH]c(=O)c3cnc(Nc4ccccn4)cc32)c1 [Compound I-50, 1-(3-methoxyphenyl)-6-(pyridin-2-ylamino)-1,2-dihydro-3H-pyrazolo[4,3-c]pyridin-3-one] | < 10 | < 10
18 | COc1cccc(-n2[nH]c(=O)c3cnc(Nc4ccncn4)cc32)c1 [Compound I-51, 1-(3-methoxyphenyl)-6-(pyrimidin-4-ylamino)-1,2-dihydro-3H-pyrazolo[4,3-c]pyridin-3-one] | < 10 | < 10
19 | COc1cccc(-n2[nH]c(=O)c3cnc(Nc4cccnn4)cc32)c1 [Compound I-52, 1-(3-methoxyphenyl)-6-(pyridazin-3-ylamino)-1,2-dihydro-3H-pyrazolo[4,3-c]pyridin-3-one] | < 10 | < 10
20 | COc1cccc(-n2[nH]c(=O)c3cnc(Nc4cnccn4)cc32)c1 [Compound I-53, 1-(3-methoxyphenyl)-6-(pyrazin-2-ylamino)-1,2-dihydro-3H-pyrazolo[4,3-c]pyridin-3-one] | < 10 | < 10
21 | COc1cccc(-n2[nH]c(=O)c3cnc(NC(=O)C4CC4)cc32)c1 [Compound I-54, N-(1-(3-methoxyphenyl)-3-oxo-2,3-dihydro-1H-pyrazolo[4,3-c]pyridin-6-yl)cyclopropanecarboxamide] | < 10 | < 10
22 | O=C(Nc1cc2c(cn1)c(=O)[nH]n2-c1cccc(OC(F)(F)F)c1)C1CC1 [Compound I-55, N-(3-oxo-1-(3-(trifluoromethoxy)phenyl)-2,3-dihydro-1H-pyrazolo[4,3-c]pyridin-6-yl)cyclopropanecarboxamide] | < 10 | < 10
23 | O=c1[nH]n(-c2cccc(OC(F)(F)F)c2)c2cc(Nc3ccc(F)cn3)ncc12 [Compound I-56, 6-((5-fluoropyridin-2-yl)amino)-1-(3-(trifluoromethoxy)phenyl)-1,2-dihydro-3H-pyrazolo[4,3-c]pyridin-3-one] | < 10 | 10 to 30
24 | Cc1cc(Nc2cc3c(cn2)c(=O)[nH]n3-c2cccc(C(F)(F)F)c2)nc(C)n1 [Compound I-57, 6-((2,6-dimethylpyrimidin-4-yl)amino)-1-(3-(trifluoromethyl)phenyl)-1,2-dihydro-3H-pyrazolo[4,3-c]pyridin-3-one] | < 10 | < 10
25 | O=C(Nc1cc2c(cn1)c(=O)[nH]n2-c1cccc(C(F)(F)F)c1)C1CC1 [Compound I-58, N-(3-oxo-1-(3-(trifluoromethyl)phenyl)-2,3-dihydro-1H-pyrazolo[4,3-c]pyridin-6-yl)cyclopropanecarboxamide] | < 10 | < 10
